In patent US20180207249A1, “METHOD AND VACCINE COMPRISING COPOLYMER 1 FOR TREATMENT OF PSYCHIATRIC DISORDERS” (YEDA RESEARCH AND DEVELOPMENT CO. LTD., priority 2003, published 2018):

Key:
Cop-1-reactive T cells = assay: ELISA of BDNF secreted by Cop-1-reactive T cells; format: cell-based, Lewis rats; settings: 48 h stimulation with antigen
Description: (iv) T-cell lines. Ten days after Cop-1 immunization, T-cell lines were generated from draining lymph node cells obtained from Lewis rats immunized with Cop-1 emulsified in CFA. The lymph nodes were surgically removed, dissociated, washed, and then activated with the antigen (10 μg/ml) in stimulation medium as previously reported (Kipnis et al., 2000). The T-cells lines were expanded by repeated stimulation and propagation.
(v) Enzyme-linked immunosorbent assay. T cell-reactive Cop-1 cells were grown for 1 week in a propagation medium, then washed with PBS and re-suspended in stimulation medium. The cultured T cells (0.5×10^6 cells/mL) were then incubated, in the presence of irradiated thymocytes (10^7 cells/mL), with concanavalin A (Con A; 1.25 μg/mL), myelin basic protein (MRP; 10 μg/ml), Cop-1 (10 μg/mL), ovalbumin (OVA; 10 μg/mL), or no antigen, in stimulation medium. After 48 h the cells were centrifaged and their supernatants were collected and sampled. Concentrations of brain-derived neurotrophic factor (BDNF) in the samples were determined with a sensitive sandwich ELISA. In brief 96-well flat-bottomed plates were coated with a chicken anti-human BDNF antibody (Promega, Madison, Wis.) in 0.025 M NaHCO3 and 0.025 M Na2CO3 (pH 8.2). Recombinant human BDNF (used as a standard; Research Diagnostics, Flanders, N.J.) was used in serial dilutions in blocking solution containing 3% bovine serum albumin, 0.05% polyoxyethylene-sorbitan monolaurate (Tween-20), and 1% fetal calf serum in PBS (pH 8.2). Bound BDNF was detected by incubating the plates with a mouse anti-human BDNF antibody (Research Diagnostics) and then with peroxidase-conjugated goat anti-mouse IgG (Jackson ImmunoResearch, West Grove, Pa.) in blocking solution. The plates were developed using a 3,3′,5,5′-tetramethylbenzidine liquid substrate system (Sigma-Aldrich). The reaction was stopped by adding 1M H3PO4, and the optical density was determined at 450 nm. Results for each experiment were calculated as the amount of secreted BDNF per 1 mL of sample, after subtraction of background levels of the irradiated thymocytes incubated with the stimulation medium.
Cop-1-reactive T cells were cultured for 48 h with Cop-1, MBP, ovalbumin, or concanavalin A in stimulation medium. T cell supernatants were collected and subjected to sandwich ELISA. […] Values are mean values (pg/ml) +/− SE (from three independent experiments) of the amounts of BDNF secreted by Cop-1-specific T cells in response to stimulation by various antigens.

[1] = test system: Treg (CD4+CD25+) co-cultured with effector T cells (Teff); assay: Inhibition assay (co-culturing of Teff with Treg), [3H]-thymidine incorporation; format: cell-based, mice; settings: activated Treg incubated 2 h with Cop-1 20 μg/ml, Cop-1 20 μg/ml also added to co-culture
Description: (xviii) Purification of CB4^+CB25^+ and CD4^+CB25^− T cells. Lymph nodes were harvested and mashed. T cells were enriched by negative selection and purified on CD3-cell columns (MTCC-25; R&D Systems). The enriched T cells were incubated with and-CD8 raicrobeads (Miltenyi Biotec, Bergiseh Gladbach, Germany), and negatively selected CD4^+ T cells were incubated with PE-conjugated anti-CD25 (30 μg/10^8 cells) in PBS/2% fetal calf serum. They were then washed and incubated with anti-PE microbeads (Miltenyi Biotec) and subjected to magnetic separation with AutoMACS (Miltenyi Biotec). The retained cells were eluted from the column as purified CD4^+CD25^+ cells. The negative fraction consisted of CD4^+CD25^− T cells. Cell purity was chceked by FACSort (Becton-Dickinson) and typically ranged from 88% to 95%. Purified cells were cultured in 24-well plates (1 ml).
(xix) Activation of CB4^+CD25^+ regulatory T cells. […]
(xx) Inhibition assay (co-culturing of Teff with Treg). […] After the cells were harvested, their analyzed [^3H]-thymidine content was analyzed by the use of a […].
Naïve Teff cells (50×10^3 cells/well) were co-cultured with decreasing numbers ([…] cells/well) of Treg cells that have been activated for 24 h with anti-CD3 and mrIL 2. […] Recorded values are from one representative experiment out of three and are expressed as means±SD of 4 replicates.

Copolymer 1 [Cop-1]
Secretion of BDNF by Cop-1-reactive T cells compared with unstimulated T cells (Cop-1-reactive T cells): significantly increased
BDNF secreted by Cop-1-reactive T cells (mean) (Cop-1-reactive T cells; mean of three independent experiments, no antigen 400): 1220 pg/mL
Treg-mediated suppression of Teff proliferation [1]: alleviated the suppression of Teff compared to the control
